Assay results published in patent publication US20150086557A1, “NOVEL INTEGRIN alpha9 beta1 LIGAND AND USES THEREOF” (OSAKA UNIVERSITY, priority 2012, published 2015).

Assays:
integrin α9β1 = molecular target: T1, integrin α9β1 (Homo sapiens, UniProt P05556+Q13797); assay: Integrin α9β1-pol-C binding inhibition assay with synthetic peptides; details: integrin α9β1 10 nM, pol-C 10 nM, 1 mM MnCl2, 10% DMSO, FIG. 15
T1 construct: A cDNA encoding the extracellular region of human integrin α9; An expression vector for the extracellular region of integrin β1; ACID coiled-coil (Velcro) peptide; FLAG; BASE coiled-coil (Velcro) peptide; made in house; host or cells: FreeStyle 293 Expression System (293-F cells)
Method: An integrin binding assay was performed as described in the above-mentioned publication Matrix Biol. 25, […], (2006). In some experiments, integrins were preincubated with synthetic peptides at various concentrations to evaluate the inhibitory activities of the synthetic peptides. The apparent dissociation constants were determined as described in Nishiuchi, R., Murayama, O., Fujiwara, H., Gu, J., Kawakami. T., Aimoto, S., Wada, Y., and Sekiguchi, K. (2003) J. Biochem, 134, 497-504.
To further corroborate the role of EDDMMEVPY as the integrin α9β1 recognition sequence, an integrin α9β1-pol-C binding inhibition assay was performed using synthetic peptides consisting of the EDDMMEVPY sequence or a part of the sequence, Integrin α9β1 (10 nM) was incubated on microtiter plates coated with pol-C (10 nM) in the presence of 1 mM MnCl2 and various concentrations of the synthetic peptides. To prevent precipitation of the peptides, the assay was performed in the presence of 10% DMSO. Based on the amount of integrin α9β1 bound to pol-C set as 100%, the relative binding amount was calculated.

hematopoietic stem cells [1] = assay: FACS analysis of differentiation of hematopoietic stem cells on coated wells; format: cell-based, mouse; details: day 3 of culture on coated well, FIG. 19
Method: (§1) Bone marrow cells were flushed out from the femurs and tibias of three mice of 6 to 7 weeks of age (C57BL/6J) and dissociated with a 22G needle. The cells were reacted with a biotin-labeled anti-lineage antibody for 30 minutes and subsequently with an anti-blotin antibody-conjugated magnetic beads, and lineage-positive cells were removed by automated magnetic cell sorter autoMACS (Miltenyi Biotec). After staining with PE-CD3, PE-Mac1, PE-Gr1, PE-Ter119, PE-B220, FTTC-Sca1 and APC-c-Kit, a lineage(−) Sca1(+) c-Kit (high) cell fraction was sorted out using FACSAria and used for the experiments described below.
(§2) The above-prepared cells were plated on a 48-well plate coated with a recombinant polydom protein or fibronectin. The same type of plate without coating was used as a control. The medium used was RPMI containing 10% fetal calf serum, thrombopoietin (30 ng/ml) and flt3 ligand (100 ng/ml). For the examination of cell proliferation, the cells were plated in duplicate wells for each coating at 1000 cells/well and started to be cultured, and the cell number was counted at the start of culture, and on day 2 and day 3. The remaining cells were divided into three aliquots, plated in wells for each coating, and subjected to FACS analysis on day 3 after the start of culture. For the FACS analysis, staining with an antibody cocktail containing PE-CD3, PE-Mac1, PE-Gr1, PE-Ter119, PE-B220, FITC-Sca1 and APC-c-Kit was performed and FACSCont was used.

hematopoietic stem cells [2] = assay: Proliferation of hematopoietic stem cells on coated plates; format: cell-based, mouse
Method: as §1, §2
The above-prepared cells were divided into three groups and plated on 48-well plates at 5000 cells/well. The medium used was RPMI containing 10% fetal calf serum, thrombopoietin (30 ng/ml) and flt3 ligand (100 ng/ml). For an EDDMMEVPY peptide treatment group, 2 μl of the peptide was added to each well at the final concentration of 50 μM, and for the other two groups, 2 μl of PBS was added to each well. Then, the culture was performed at […] for 2 hours. Subsequently, the cells were transferred to 48-well plates coated with a recombinant polydom protein or fibronectin. The cells cultured in the presence of the peptide were transferred to the recombinant polydom protein-coated plate, and the cells in one of the other two groups were transferred to the recombinant polydom protein-coated plate, and the cells in the remaining group were transferred to the fibronectin-coated plate. The culture was continued for 3 days and the cell numbers were counted on day 2, day 3 and […].

cardiac stem cells [3] = assay: Cell adhesion assay using GFP label-retaining cells (cardiac stem cells); format: cell-based, mouse; details: 100 nM coating, 12 hours, serum-free IMDM, FIG. 25
From the text: (§3) Tissue stem cells are known to generally have a very prolonged, cell cycle and thus allow labeling compounds incorporated into DNA and the cell interior to remain stable for a long period of time without decay along with cell division, This nature can be advantageously used to identify and separate tissue stem cells by short-term labeling or cells with a nucleotide analog such as bromodeoxyuridine (BrdU) or a fusion protein of green fluorescent protein (hereinafter referred to as “GFP”) and a nucleoprotein, histone, followed by selection of cells retaining the label for a long period of time (label-retaining cells). In this experiment, with the use of a tetracycline-inducible expression system in combination with the ROSA26 promoter, a fusion protein of GFP and histone H2B (H2B-GFP) was expressed in the heart of a mouse for 2 weeks starting 1 week before birth, and 6 weeks later, cardiac stem cells were separated as GFP label-retaining cells from the heart.
To explore whether polydom serves as a scaffold for integrin α9β1-expressing cardiac stem cells, cardiac stem cells were separated as GFP label-retaining cells and subjected to a cell adhesion assay. A 96-well immuno plate (Nunc Maxisorp) was coated with 50 μl/well of 100 nM polydom or fibronectin at 4° C. overnight, GFP label-retaining cells were collected by FACSAria and suspended at 1×10^6 cells/ml in serum-free Iscove's Modified Dulbecco Medium (hereinafter referred to as “IMDM”). The cell suspension was plated at 100 μl/well and cultured in a 5% CO2 incubator at 37° C. for 12 hours. After three washes with PBS, the cells were fixed with 100 μl/well of 3.7% formalin for 15 minutes. Then, the cells were incubated with 0.5% toluidine blue (150 μl/well) for 10 minutes and washed with MilliQ water. After drying, the number of attached cells was counted under a microscope.

cardiac stem cells [4] = assay: Colony forming ability of GFP label-retaining cells (cardiac stem cells); format: cell-based, mouse; details: 100 nM coating, 1×10^4 cells/well, 2 weeks, FIG. 26
From the text: as §3
To explore whether cardiac stem cells proliferate on a polydom-coated plate, colony formation was measured, as an indicator of proliferation. A Falcon 6-well plate was coated with 800 μl/well of 100 nM polydom or fibronectin at 4° C. overnight. GFP label-retaining cells were collected by FACSAria and suspended in IMDM containing 10% fetal calf serum. […] After drying, the number of colonies was counted under a microscope.

[5] = molecular target: integrin α9β1 on RD cells (human rhabdomyosarcoma cells) (human) (UniProt Q13797); assay: cell-based or functional assay
Chain of integrin α9β1 on RD cells (human rhabdomyosarcoma cells) (human) (Q13797 30-1035, chain 1 of 2): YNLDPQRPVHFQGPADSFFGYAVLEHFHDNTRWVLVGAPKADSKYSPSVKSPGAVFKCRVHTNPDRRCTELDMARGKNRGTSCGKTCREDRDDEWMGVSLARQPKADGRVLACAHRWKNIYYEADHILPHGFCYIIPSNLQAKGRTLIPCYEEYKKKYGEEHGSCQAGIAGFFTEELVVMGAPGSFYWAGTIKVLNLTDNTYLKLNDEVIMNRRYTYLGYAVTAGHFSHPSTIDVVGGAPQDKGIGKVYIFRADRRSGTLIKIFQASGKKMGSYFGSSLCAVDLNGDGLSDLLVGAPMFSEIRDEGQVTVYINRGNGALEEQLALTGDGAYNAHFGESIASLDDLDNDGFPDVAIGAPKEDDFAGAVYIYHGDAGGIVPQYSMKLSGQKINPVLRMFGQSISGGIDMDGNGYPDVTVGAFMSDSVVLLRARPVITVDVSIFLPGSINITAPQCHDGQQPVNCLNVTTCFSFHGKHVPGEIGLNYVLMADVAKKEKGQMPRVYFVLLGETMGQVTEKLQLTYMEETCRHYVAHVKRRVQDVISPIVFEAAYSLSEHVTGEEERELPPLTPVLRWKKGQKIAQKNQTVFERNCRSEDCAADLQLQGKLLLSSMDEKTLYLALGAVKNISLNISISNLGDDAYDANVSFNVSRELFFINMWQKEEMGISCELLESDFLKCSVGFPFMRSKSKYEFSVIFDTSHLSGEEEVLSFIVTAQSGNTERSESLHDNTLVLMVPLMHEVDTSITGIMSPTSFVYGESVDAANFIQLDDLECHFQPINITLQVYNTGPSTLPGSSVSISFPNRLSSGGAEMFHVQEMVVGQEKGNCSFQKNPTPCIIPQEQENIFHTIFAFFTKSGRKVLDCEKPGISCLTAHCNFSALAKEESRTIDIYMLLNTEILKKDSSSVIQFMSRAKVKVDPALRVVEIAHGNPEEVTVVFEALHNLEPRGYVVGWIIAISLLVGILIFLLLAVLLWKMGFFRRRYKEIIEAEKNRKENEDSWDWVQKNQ
Chain of integrin α9β1 on RD cells (human rhabdomyosarcoma cells) (human) (P05556 21-798, chain 2 of 2, further chain): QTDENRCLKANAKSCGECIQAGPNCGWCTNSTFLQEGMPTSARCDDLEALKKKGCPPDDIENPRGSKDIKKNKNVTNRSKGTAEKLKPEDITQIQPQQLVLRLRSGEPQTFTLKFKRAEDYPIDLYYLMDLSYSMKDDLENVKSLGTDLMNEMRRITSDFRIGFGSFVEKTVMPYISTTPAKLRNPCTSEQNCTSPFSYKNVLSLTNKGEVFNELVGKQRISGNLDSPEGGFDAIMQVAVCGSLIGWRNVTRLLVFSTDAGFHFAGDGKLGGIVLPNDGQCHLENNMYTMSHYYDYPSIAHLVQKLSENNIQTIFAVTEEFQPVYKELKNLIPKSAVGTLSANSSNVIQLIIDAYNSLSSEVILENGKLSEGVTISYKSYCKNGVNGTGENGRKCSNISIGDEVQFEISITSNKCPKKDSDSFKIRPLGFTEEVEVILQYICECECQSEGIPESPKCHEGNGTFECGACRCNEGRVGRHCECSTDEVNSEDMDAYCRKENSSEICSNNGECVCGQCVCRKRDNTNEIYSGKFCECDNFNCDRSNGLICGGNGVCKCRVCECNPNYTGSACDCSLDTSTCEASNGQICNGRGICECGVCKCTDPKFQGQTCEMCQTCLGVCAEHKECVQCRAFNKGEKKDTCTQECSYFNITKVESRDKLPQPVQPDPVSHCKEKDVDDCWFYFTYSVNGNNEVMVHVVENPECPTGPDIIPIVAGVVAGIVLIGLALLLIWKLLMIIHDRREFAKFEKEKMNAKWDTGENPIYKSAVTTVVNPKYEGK

T1 sequence (Q13797 30-981 limits assumed): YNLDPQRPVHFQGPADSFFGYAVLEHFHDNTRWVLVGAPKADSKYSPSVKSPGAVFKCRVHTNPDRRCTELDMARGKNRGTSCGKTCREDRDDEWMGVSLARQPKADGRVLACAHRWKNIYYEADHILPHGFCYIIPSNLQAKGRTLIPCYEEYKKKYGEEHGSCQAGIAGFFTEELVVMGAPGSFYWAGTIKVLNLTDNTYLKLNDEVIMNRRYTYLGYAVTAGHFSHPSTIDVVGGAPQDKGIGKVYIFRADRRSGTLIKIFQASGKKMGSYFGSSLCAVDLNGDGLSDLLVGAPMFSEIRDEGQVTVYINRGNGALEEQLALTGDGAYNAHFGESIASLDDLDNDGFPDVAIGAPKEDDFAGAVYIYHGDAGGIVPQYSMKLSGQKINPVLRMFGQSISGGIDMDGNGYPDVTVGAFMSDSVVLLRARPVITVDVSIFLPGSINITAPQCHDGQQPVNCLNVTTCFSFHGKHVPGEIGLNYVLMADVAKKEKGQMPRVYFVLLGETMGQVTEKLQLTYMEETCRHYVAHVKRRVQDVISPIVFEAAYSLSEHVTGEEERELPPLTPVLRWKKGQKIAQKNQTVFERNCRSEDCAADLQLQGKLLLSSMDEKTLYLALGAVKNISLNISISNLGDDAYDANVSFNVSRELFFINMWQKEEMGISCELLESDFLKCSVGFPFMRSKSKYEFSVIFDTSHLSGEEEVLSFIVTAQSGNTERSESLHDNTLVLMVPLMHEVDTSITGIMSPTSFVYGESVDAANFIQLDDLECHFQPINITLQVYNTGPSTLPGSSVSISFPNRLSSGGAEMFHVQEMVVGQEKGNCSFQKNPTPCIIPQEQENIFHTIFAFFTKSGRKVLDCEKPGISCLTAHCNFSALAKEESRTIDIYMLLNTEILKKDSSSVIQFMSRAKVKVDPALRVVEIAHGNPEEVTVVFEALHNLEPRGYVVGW
T1 sequence (P05556 21-728 limits assumed): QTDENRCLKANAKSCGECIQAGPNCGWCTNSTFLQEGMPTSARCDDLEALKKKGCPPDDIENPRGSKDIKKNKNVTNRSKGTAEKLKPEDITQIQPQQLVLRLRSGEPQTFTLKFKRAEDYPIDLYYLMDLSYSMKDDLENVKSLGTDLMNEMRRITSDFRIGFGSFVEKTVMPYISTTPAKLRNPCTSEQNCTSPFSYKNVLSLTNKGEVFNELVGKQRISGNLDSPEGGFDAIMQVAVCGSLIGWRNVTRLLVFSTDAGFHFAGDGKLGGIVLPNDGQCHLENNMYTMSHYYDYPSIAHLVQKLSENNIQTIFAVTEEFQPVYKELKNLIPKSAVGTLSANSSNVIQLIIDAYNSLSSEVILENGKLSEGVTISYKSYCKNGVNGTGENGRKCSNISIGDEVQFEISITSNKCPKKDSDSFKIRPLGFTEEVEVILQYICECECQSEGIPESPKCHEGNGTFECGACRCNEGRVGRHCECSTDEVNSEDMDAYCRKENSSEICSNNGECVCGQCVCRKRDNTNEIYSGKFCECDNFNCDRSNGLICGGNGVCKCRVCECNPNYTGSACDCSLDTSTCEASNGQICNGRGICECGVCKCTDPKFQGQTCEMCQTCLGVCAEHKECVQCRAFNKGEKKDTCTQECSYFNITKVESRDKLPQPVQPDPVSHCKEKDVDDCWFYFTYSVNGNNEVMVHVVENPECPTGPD

DMMEVPY
inhibitory potency toward binding of integrin α9β1 to pol-C (integrin α9β1): nearly as potent as EDDMMEVPY

fibronectin [reference compound]
expression of c-Kit on hematopoietic stem cells (hematopoietic stem cells [1]): increased expression of c-Kit | proliferation of hematopoietic stem cells on coated wells (hematopoietic stem cells [2]; 1000 cells/well, counted to day 3, versus uncoated control, FIG. 18): proliferated as with the control | proliferation of hematopoietic stem cells on coated plate after PBS pretreatment (hematopoietic stem cells [2]; 5000 cells/well, counted day 2 to day 4, FIG. 20): proliferated | adhesion of cardiac stem cells to coated plate (cardiac stem cells [3]): a large number of the cells adhered | colony forming activity (colony count relative to the number of cells plated) (cardiac stem cells [4]): about 0.4%

full-length polydom (recombinant mouse SVEP1) (from UniProt A2AVA0 18-3567) (ligand)
adhesion of RD cells to coated full-length polydom [5]: 3 µg/mL

TYSSPEDGIHE [reference compound]
inhibitory potency toward binding of integrin α9β1 to pol-C (integrin α9β1): barely inhibitory
